{"source": "patent US20030083375A1", "about": "“11Beta-fluoro 15beta-hydroxy PGF2alpha analogs as FP receptor antagonists” (priority 1997, published 2003)", "key": {"[1]": {"biological_target": "T1, FP receptor (Rattus norvegicus, UniProt P43118)", "T1 construct": "Two cell lines containing the FP receptor have been extensively characterized by this method; host or cells: A7r5 rat thoracic aorta smooth muscle cells", "T1 sequence (P43118 whole entry)": "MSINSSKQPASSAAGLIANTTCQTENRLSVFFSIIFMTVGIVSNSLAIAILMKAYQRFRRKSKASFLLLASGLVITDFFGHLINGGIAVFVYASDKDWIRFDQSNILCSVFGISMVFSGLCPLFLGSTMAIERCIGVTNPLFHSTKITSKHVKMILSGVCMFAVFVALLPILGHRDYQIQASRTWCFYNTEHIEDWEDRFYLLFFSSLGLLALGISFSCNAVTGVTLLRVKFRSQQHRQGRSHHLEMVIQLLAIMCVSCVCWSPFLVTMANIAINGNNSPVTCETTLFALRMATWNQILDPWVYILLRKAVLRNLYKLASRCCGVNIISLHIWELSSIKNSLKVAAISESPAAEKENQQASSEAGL", "test": "Agonist stimulation of [3H]IPs production in A7r5 cells", "type": "cell-based", "method": "(§1) Confluent monolayer cultures of cells (in a standard 24-well tissue culture plate) expressing the FP receptor are exposed to [^3H]-myo-inositol (1.5 μCi in a volume of 0.5 ml DMEM culture medium supplemented with 2 mM L-glutamine and 10 μg/ml gentamicin sulfate) in the absence of serum, which causes net incorporation of the radioisotope into the phosphotidylinositol membrane lipids. After 24-32 hrs, the medium with the radioisotope is removed and the cells are rinsed once with DMEM/F-12 medium containing 10 mM LiCl (assay medium). Then 0.5 ml of assay medium is added to each well of cells, followed by addition of varying concentrations of an FP receptor agonist (or other test compound). Cells are exposed to the test agent for 30-120 min in a humidified incubator (95% air/5% CO2), maintained at 37° C. Then the assay medium is removed and 1 ml of 0.1 M formic acid is added to the cell monolayer to inactivate the phospholipase C release the radiolabelled products into the assay medium. The presence of LiCl during the agonist stimulation period inhibits phosphatases and permits the accumulation of radiolabelled inositol phosphates (IPs) which is measured by ion exchange chromatography.\nThe agonist-dependent production of IPs, which reflects the degree of receptor activation, is quantitatively measured for each well of cells in the 24-well plate by separating the negatively charged radiolabelled IPs from other minor radiolabelled species and free [^3H]-myo-inositol by anion exchange chromatography. […] These samples, i.e., the radiolabelled IPs formed by the cells in response to stimulation by an FP prostaglandin receptor agonist or other test agent, is then measured by scintillation spectrometry on a beta-counter.\nThe dependence of the level of the [^3H]IPs production on agonist concentration is analyzed by standard pharmacological methods to determine the potency (EC50 value) and efficacy (maximum response; Emax) of the FP receptor agonist relative to a standard FP receptor agonist such as fluprostenol. […]"}, "[2]": {"biological_target": "T1, FP receptor", "test": "Antagonism of fluprostenol-stimulated [3H]IPs production in A7r5 cells", "type": "cell-based", "method": "as §1\nThe agonist-dependent production of IPs, which reflects the degree of receptor activation, is quantitatively measured for each well of cells in the 24-well plate by separating the negatively charged radiolabelled IPs from other minor radiolabelled species and free [^3H]-myo-inositol by anion exchange chromatography. This is accomplished by adding 0.9 ml of the cell lysate obtained as described above to a column packed with 1 ml of AG 1-X8 anion exchange resin in the formate form. The elution and separation of the radiolabelled IPs from the column consists of sequential additions to the column of: 1) 10 ml of water; 2) 8 ml of 50 mM ammonium formate; and 3) 4 ml of 1.2 M ammonium formate solution containing 0.1 M formic acid. The first two washes are discarded, and the third is collected in a scintillation vial, to which is added 15 ml of a water-accepting scintillation fluid. These samples, i.e., the radiolabelled IPs formed by the cells in response to stimulation by an FP prostaglandin receptor agonist or other test agent, is then measured by scintillation spectrometry on a beta-counter.\nThe dependence of the level of the [^3H]IPs production on agonist concentration is analyzed by standard pharmacological methods to determine the potency (EC50 value) and efficacy (maximum response; Emax) of the FP receptor agonist relative to a standard FP receptor agonist such as fluprostenol. […] The agonist stimulation is then continued for the standard time (30-120 min), after which the procedure for quenching the reaction, separating the [^3H]IPs, and anion exchange chromatography is identical to the procedure described above. A compound is considered to be an antagonist in this protocol if it inhibits the agonist-stimulated [^3H]IPs production relative to the production measured in the control experiment (performed in parallel), in which the solvent is substituted for the antagonist.\nTwo different antagonist protocols are employed: 1) the antagonist concentration is varied while holding the agonist concentration fixed at a concentration approximately 10 times the agonist EC50 value and 2) the antagonist concentration is fixed in a given experiment, with the agonist concentration varied, and several such experiments, each with a different, fixed antagonist concentration, are performed. […] Overall, the Ki and Kb values are synonymous and represent the antagonist potency of the antagonist at equilibrium."}, "[3]": {"biological_target": "T2, human ocular FP receptor (Homo sapiens, UniProt P43088)", "T2 construct": "expressed in transfected cells; host or cells: HEK-293 (human embryonic kidney)", "T2 sequence (P43088 whole entry)": "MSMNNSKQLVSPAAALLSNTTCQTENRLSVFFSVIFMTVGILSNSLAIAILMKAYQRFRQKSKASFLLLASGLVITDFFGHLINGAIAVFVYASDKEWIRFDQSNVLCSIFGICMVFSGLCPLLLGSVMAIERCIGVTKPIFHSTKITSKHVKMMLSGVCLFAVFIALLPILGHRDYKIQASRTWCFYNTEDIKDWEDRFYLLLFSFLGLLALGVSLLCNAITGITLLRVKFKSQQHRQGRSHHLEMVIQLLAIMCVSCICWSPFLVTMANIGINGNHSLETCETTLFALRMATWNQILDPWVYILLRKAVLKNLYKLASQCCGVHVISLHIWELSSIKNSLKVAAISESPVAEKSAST", "test": "Antagonism of fluprostenol-induced [3H]IPs production in HEK-293 cells expressing recombinant human ocular FP receptor", "type": "cell-based", "method": "as §1, with “Then the assay medium is removed and 1 ml of 0.1 M formic acid is added to the cell monolayer to inactivate the phospholipase C release the radiolabelled products into the assay medium.” left out\nThe agonist-dependent production of IPs, which reflects the degree of receptor activation, is quantitatively measured for each well of cells in the 24-well plate by separating the negatively charged radiolabelled IPs from other minor radiolabelled species and free [^3H]-myo-inositol by anion exchange chromatography. […]"}, "[4]": {"biological_target": "FP prostaglandin receptor (Homo sapiens, UniProt P43088)", "sequence (P43088 whole entry)": "as above", "test": "Selectivity for the FP prostaglandin receptor compared to other classes of prostaglandin receptors"}}, "note": "Like-named read-outs stand apart in the source and are kept apart here.", "data": [{"smiles": "O=C(O)CCC/C=C\\C[C@@H]1[C@@H](/C=C/[C@@H](O)COc2cccc(C(F)(F)F)c2)[C@H](O)C[C@@H]1O", "note": "(racemic) [fluprostenol]", "values": [{"measurement": "Agonist classification (maximum effect relative to full agonists)", "setting": "[1]", "value": "full agonist"}]}, {"smiles": "O=C(O)CCC/C=C\\C[C@@H]1[C@@H](/C=C/[C@H](O)C2Cc3ccccc3C2)[C@@H](F)C[C@@H]1O", "note": "[Compound III, (5Z,13E)-(9S,11S,15R)-9,15-Dihydroxy-11-fluoro-15-(2-indanyl)-16,17,18,19,20-pentanor-5,13-prostadienoic acid]", "values": [{"measurement": "Kb", "setting": "[2]; Schild analysis, read-out: Kb, mol/L (potency as antagonist of the FP receptor)", "value": 250, "unit": "nM"}, {"measurement": "Ki", "setting": "[2]; fixed fluprostenol concentration about 10 times the agonist EC50, read-out: Ki (method of FIG. 2, antagonist concentration varied)", "value": "426 ± 63", "unit": "nM"}, {"measurement": "Kb", "setting": "[2]; fluprostenol agonist varied, fixed antagonist concentrations, n=4 experiments, read-out: Kb (Schild analysis)", "value": "285 ± 97", "unit": "nM"}, {"measurement": "Fold higher potency as FP receptor antagonist than phloretin", "setting": "[2]; from Table 1", "value": "> 10", "unit": "fold"}, {"measurement": "Type of antagonism", "setting": "[2]; shift of fluprostenol dose-response curves, maximal effect unaltered", "value": "competitive antagonist"}, {"measurement": "Antagonism of fluprostenol-induced [3H]IPs production", "setting": "[3]", "value": "behaved as an antagonist"}, {"measurement": "Agonist classification (maximum effect relative to full agonists)", "setting": "[1]", "value": "partial agonist"}, {"measurement": "Selectivity for FP prostaglandin receptor versus other prostaglandin receptor classes", "setting": "[4]", "value": "relatively good selectivity"}]}, {"smiles": "CCCCC[C@H](O)/C=C/[C@@H]1[C@@H](C/C=C\\CCCC(=O)N(C)C)[C@@H](O)C[C@H]1O", "note": "[PGF2α dimethyl amide, reference compound]", "values": [{"measurement": "Kb, mol/L (potency as antagonist of the FP receptor)", "setting": "[2]; Schild analysis", "value": "Inactive"}]}, {"smiles": "CCCCC[C@H](O)/C=C/[C@@H]1[C@@H](C/C=C\\CCCCN(C)C)[C@@H](O)C[C@H]1O", "note": "[PGF2α dimethyl amine, reference compound]", "values": [{"measurement": "Kb, mol/L (potency as antagonist of the FP receptor)", "setting": "[2]; Schild analysis", "value": "Inactive"}]}, {"smiles": "CCCCNC(=O)NS(=O)(=O)c1ccc(C)cc1", "note": "[Tolbutamide, reference compound]", "values": [{"measurement": "Kb, mol/L (potency as antagonist of the FP receptor)", "setting": "[2]; Schild analysis", "value": "Inactive"}]}, {"smiles": "O=C(O)CCC/C=C\\CC1C(O)CC(O)C1/C=C/C(O)COc1cccc(Cl)c1", "note": "(stereo not shown) [cloprostenol]", "values": [{"measurement": "Agonist classification (maximum effect relative to full agonists)", "setting": "[1]", "value": "full agonist"}]}]}
